Results on one compound are retold here after patent US8124381B2, “Process and materials for production of glucosamine and N-acetylglucosamine” (Arkion Life Sciences, priority 2002, dated 2012).

The target of test [1] is T1, E. coli glucosamine synthase GlmS*54 (Escherichia coli, UniProt P17169, A39T/G472S/R250C).
T1 construct: made in house; host or cells: E. coli 7107-18 (printed '7017-18'; T7-glmS*54 integrated at galK) and strains derived from it; crude extract
Kind of test: Effects of phosphorylated sugars on glucosamine synthase. In kind it is biochemical. The method, then: (§1) Glucosamine synthetase activity was examined in the presence of various phosphorylated sugars. Crude enzyme extracts was prepared from cells of 7017-18 grown in shake flasks for 24 hours with lactose induction.

The target of test [2] is glucose-6-P dehydrogenase (zwf) (Escherichia coli, UniProt P0AC53, A9V). Nature of the test: Effect of phosphorylated amino sugars on glucose-6-P dehydrogenase. The class given is biochemical. The note with it: in vitro, FIG. 16.
The target in test [3] is T2, E. coli GlmS (glucosamine-6-phosphate synthase), wild type, SEQ ID NO:2 (strain 2123-12) (Escherichia coli, UniProt P17169).
T2 construct: made in house; host or cells: E. coli strain 2123-12 (T7-glmS integrated in the chromosome), crude cell extract
Nature of the test: GlmS (glucosamine synthase) inhibition and Michaelis-Menten kinetics, crude extract of strain 2123-12. The class given is biochemical. The method, then:
(§2) Different glucosamine synthetase enzymes, including native B. subtillus GlmS, native E. coli GlmS and mutant E. coli GlmS, were studied in vitro. Cells of various E. coli strains were grown in the M9A medium, harvested, and frozen. Cells extracts were prepared and the glucosamine synthetases were characterized and compared.
(§3) Enzyme sensitivities to the reaction product glucosamine-6-P were examined. […] This figure highlights the dramatic difference between the wild type GlmS and these mutant GlmS strains.
(§4) The Mutants 2123-54 and the B. subtilis enzyme have higher Ki values (Table 6). Measured Ki constants for several of these mutants are 4 to 8 times the value for the native enzyme in strain 2123-12. From shake flask studies it is apparent that decreased sensitivity to glucosamine-6-P allows higher glucosamine levels to accumulate.
(§5) These values are slightly higher than those obtained with the native enzyme.

For test [4], the target named is T3, E. coli GlmS mutant GlmS*54, SEQ ID NO:6 (Ala39Thr, Arg250Cys, Gly472Ser) (strain 2123-54) (Escherichia coli, UniProt P17169, A39T/G472S/R250C).
T3 construct: made in house; host or cells: E. coli strain 2123-54 (lacZ::T7-glmS*54), crude cell extract
T3 sequence (P17169 2-609 A39T/R250C/G472S): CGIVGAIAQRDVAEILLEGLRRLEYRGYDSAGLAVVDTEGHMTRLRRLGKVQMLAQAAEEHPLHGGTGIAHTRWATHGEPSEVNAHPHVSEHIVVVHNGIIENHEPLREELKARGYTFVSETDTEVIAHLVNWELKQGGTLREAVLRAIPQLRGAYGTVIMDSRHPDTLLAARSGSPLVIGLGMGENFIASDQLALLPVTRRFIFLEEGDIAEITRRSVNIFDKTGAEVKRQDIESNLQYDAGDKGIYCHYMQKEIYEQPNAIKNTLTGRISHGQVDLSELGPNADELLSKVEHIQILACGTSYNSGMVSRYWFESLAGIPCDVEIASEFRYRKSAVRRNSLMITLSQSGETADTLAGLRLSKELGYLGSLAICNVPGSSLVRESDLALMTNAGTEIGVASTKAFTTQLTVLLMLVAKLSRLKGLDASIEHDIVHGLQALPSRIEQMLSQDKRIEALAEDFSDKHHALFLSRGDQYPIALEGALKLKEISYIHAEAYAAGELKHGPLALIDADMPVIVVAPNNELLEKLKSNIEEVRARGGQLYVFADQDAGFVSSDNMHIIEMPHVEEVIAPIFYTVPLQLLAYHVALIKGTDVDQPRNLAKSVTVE
Kind of test: GlmS inhibition and Michaelis-Menten kinetics, crude extract of strain 2123-54. The class given is biochemical. The method, then: as §2, §3, §4, §5

The target in test [5] is E. coli GlmS mutant GlmS*110 (Escherichia coli, UniProt P17169). Nature of the test: GlmS inhibition and Michaelis-Menten kinetics. In kind it is biochemical. The note with it: read-out: Ki (GlcN-6-P). As to the method:
as §2, §3, §4, §5

Test [6] addresses T4, E. coli GlmS mutant GlmS*124, SEQ ID NO:8 (Leu469Pro) (strain 2123-124) (Escherichia coli, UniProt P17169, L469P).
T4 construct: made in house; host or cells: E. coli strain 2123-124, cell extract
Nature of the test: GlmS inhibition and Michaelis-Menten kinetics. In kind it is biochemical. The method, then:
as §2, §3, §4, §5

Test [7] concerns the target E. coli GlmS mutant GlmS*69 (Escherichia coli, UniProt P17169). Nature of the test: GlmS inhibition and Michaelis-Menten kinetics. In kind it is biochemical. The note with it: read-out: Ki (GlcN-6-P). As to the method:
as §2, §3, §4, §5

Test [8] concerns the target T5, E. coli GlmS mutant GlmS*72, SEQ ID NO:14 (Glu15Lys, Asp387Val, Ser450Pro, Glu525Gly) (strain 2123-72) (Escherichia coli, UniProt P17169, D387V/E15K/E525G/S450P).
T5 construct: made in house; host or cells: E. coli strain 2123-72 (from 7101-17(DE3), plasmid with glmS*72 integrated), cell extract
Nature of the test: GlmS inhibition and Michaelis-Menten kinetics. In kind it is biochemical. As to the method: as §2, §3, §4, §5

The target of test [9] is T6, Bacillus subtilis GlmS, wild type, SEQ ID NO:16 (Bacillus subtilis, UniProt P0CI73).
T6 construct: made in house; host or cells: E. coli 7107-24 (7101-17(DE3) with pET24d(+)/B. subtilis glmS from ATCC23856), crude cell extract
Kind of test: biochemical. As to the method:
as §2
Enzyme sensitivities to the reaction product glucosamine-6-P were examined.

For test [10], the target named is E. coli GlmS mutant GlmS*4 (strain 2123-4) (Escherichia coli, UniProt P17169). Kind of test: GlmS sensitivity to inhibition by glucosamine-6-P. The class given is biochemical. The note with it: 0-30 mM glucosamine-6-P; FIG. 5. As to the method:
as §2, §3

Test [11] deals with E. coli GlmS mutant GlmS*59 (strain 2123-59) (Escherichia coli, UniProt P17169). Nature of the test: GlmS sensitivity to inhibition by glucosamine-6-P. In kind it is biochemical. The note with it: 0-30 mM glucosamine-6-P; FIG. 5. The method, then:
as §2, §3

Test [12] addresses E. coli GlmS mutant GlmS*64 (strain 2123-64) (Escherichia coli, UniProt P17169). Kind of test: GlmS sensitivity to inhibition by glucosamine-6-P. In kind it is biochemical. The note with it: 0-30 mM glucosamine-6-P; FIG. 5. The method, then:
as §2, §3

The target of test [13] is E. coli glucosamine synthase GlmS*54, SEQ ID NO:6 (Ala39Thr, Arg250Cys, Gly472Ser) (Escherichia coli, UniProt P17169, A39T/G472S/R250C). Nature of the test: Effects of phosphorylated sugars on glucosamine synthase, crude extract of lactose-induced 7107-18 cells. In kind it is biochemical. The note with it: 10 mM or relatively high concentration. The method, then:
as §1

In test [14] the test system is phosphoglucoisomerase (Pgi). Kind of test: Effect of phosphorylated amino sugars on phosphoglucoisomerase activity (FIG. 15). The class given is biochemical. The note with it: in vitro. The source says:
Therefore, effects of glucosamine-6-P and N-acetylglucosamine-6-P on several of the enzymes were examined.

In test [15] the target is phosphoglucoisomerase (Pgi) (Escherichia coli, UniProt P0A6T1). The note with it: literature; cited from earlier work.
Test [16] concerns phosphoglucoisomerase (Pgi). The note with it: cited from earlier work.
Setting [17] is: 0-30 mM glucosamine-6-P, FIG. 5.

SMILES strings stand for the structures. Entries after “also recorded” stand apart in the source; their conditions may differ.

T2 sequence (P17169 2-609 limits assumed): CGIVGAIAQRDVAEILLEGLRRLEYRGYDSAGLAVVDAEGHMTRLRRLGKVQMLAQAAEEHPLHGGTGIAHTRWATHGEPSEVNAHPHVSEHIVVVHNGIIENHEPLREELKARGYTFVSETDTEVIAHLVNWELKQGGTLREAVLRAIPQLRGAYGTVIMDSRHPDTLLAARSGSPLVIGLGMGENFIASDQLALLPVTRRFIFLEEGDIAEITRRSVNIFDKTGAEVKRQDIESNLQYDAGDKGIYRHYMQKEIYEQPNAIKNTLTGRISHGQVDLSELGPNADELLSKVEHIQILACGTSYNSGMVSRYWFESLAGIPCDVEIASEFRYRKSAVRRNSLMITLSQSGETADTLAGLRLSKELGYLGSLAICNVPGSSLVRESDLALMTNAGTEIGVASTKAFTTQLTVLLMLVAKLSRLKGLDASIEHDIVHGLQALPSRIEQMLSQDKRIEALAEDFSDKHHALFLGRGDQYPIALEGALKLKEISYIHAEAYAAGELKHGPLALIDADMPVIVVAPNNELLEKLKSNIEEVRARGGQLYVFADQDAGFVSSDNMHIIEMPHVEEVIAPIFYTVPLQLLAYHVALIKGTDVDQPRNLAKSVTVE
T5 sequence (P17169 2-609 E15K/D387V/S450P/E525G): as the sequence (P17169 2-609 limits assumed) above, with E14K, D386V, S449P, E524G counted along it
T6 sequence (P0CI73 2-600): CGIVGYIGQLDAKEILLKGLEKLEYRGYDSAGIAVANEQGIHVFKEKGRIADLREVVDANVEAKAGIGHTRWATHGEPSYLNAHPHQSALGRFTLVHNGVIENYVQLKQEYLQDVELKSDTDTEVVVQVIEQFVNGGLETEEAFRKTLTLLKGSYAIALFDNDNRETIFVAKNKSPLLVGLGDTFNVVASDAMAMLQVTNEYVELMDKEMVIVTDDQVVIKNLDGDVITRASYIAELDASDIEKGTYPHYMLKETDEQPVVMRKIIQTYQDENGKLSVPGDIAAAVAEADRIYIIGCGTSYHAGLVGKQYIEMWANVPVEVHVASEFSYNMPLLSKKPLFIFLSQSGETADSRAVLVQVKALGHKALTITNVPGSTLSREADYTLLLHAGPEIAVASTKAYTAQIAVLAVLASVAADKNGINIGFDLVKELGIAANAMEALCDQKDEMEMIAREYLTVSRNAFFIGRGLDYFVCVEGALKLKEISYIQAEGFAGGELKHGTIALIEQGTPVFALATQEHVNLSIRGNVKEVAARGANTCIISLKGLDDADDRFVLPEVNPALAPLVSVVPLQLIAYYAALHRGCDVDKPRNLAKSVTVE
T4 sequence (P17169 2-609 L469P): as the sequence (P17169 2-609 limits assumed) above, with L468P counted along it
Sequence of E. coli GlmS mutant GlmS*69 (P17169 whole entry, change not shown): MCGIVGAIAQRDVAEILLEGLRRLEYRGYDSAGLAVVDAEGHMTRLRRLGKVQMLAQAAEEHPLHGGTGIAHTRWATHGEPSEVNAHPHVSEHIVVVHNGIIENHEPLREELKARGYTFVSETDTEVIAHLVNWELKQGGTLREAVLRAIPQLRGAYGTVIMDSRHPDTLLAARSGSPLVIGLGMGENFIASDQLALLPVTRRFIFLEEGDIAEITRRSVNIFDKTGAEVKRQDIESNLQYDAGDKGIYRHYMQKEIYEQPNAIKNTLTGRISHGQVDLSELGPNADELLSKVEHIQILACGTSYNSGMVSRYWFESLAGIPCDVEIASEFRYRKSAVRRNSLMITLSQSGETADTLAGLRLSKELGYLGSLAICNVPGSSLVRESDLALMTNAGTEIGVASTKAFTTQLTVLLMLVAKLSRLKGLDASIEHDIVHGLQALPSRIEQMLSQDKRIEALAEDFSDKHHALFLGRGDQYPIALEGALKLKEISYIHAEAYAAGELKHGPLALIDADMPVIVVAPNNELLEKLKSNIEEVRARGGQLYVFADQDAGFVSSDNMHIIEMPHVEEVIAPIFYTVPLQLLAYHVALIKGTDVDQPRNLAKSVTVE
Sequence of E. coli GlmS mutant GlmS*59 (strain 2123-59) (P17169 whole entry, change not shown): as above
Sequence of E. coli GlmS mutant GlmS*110 (P17169 whole entry, change not shown): as above
Sequence of E. coli GlmS mutant GlmS*64 (strain 2123-64) (P17169 whole entry, change not shown): as above
Sequence of E. coli GlmS mutant GlmS*4 (strain 2123-4) (P17169 whole entry, change not shown): as above
Sequence of phosphoglucoisomerase (Pgi) (Escherichia coli, UniProt P0A6T1) (P0A6T1 whole entry): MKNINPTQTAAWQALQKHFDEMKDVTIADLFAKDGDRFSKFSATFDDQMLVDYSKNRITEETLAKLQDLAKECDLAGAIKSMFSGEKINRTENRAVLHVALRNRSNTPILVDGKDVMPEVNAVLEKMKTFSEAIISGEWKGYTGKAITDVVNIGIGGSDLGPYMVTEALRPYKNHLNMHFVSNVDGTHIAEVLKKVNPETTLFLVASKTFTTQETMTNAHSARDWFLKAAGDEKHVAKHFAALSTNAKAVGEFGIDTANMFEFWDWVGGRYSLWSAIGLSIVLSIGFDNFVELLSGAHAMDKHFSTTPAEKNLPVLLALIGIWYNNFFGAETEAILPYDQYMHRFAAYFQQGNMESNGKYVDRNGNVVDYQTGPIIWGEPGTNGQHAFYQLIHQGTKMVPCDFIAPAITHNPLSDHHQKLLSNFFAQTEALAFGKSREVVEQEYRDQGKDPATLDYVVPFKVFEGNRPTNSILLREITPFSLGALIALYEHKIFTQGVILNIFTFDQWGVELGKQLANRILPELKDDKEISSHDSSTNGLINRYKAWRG
Sequence of E. coli glucosamine synthase GlmS*54, SEQ ID NO:6 (Ala39Thr, Arg250Cys, Gly472Ser) (P17169 whole entry A39T/R250C/G472S): as the sequence (P17169 whole entry, change not shown) above, with A39T, R250C, G472S counted along it
Sequence of glucose-6-P dehydrogenase (zwf) (P0AC53 whole entry A9V): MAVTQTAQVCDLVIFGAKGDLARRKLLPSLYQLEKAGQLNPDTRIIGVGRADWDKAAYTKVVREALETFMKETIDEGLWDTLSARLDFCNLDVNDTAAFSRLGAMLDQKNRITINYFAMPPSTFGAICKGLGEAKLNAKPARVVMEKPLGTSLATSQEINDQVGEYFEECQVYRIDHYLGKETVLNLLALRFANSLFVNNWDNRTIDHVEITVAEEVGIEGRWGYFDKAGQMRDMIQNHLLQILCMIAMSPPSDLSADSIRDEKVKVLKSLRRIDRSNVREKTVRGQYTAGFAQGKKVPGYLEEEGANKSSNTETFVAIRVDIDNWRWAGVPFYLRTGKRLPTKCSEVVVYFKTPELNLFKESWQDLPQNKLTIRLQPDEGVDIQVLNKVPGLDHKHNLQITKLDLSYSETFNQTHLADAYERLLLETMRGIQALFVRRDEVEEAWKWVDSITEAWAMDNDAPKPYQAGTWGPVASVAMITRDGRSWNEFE

By Ki is commonly meant the dissociation constant of the complex between target and ligand, obtained from inhibition or displacement. For orientation: remaining activity means the activity still measured, relative to the control. `N[C@H]1C(O)O[C@H](COP(=O)(O)O)[C@@H](O)[C@@H]1O` (stereo partly drawn) [glucosamine-6-P, glucosamine-6-phosphate] showed an activity at 10000 µM in test [1] of 70%. For the same compound, the activity at 20000 µM in test [1] was found to be 46%. The “inhibition of glucosamine synthetase (in words)” value in [1] is reported as “strong inhibition”; in test [13], “strong inhibition on glucosamine synthetase at relatively high concentration”. Further, the “inhibition of glucose-6-P dehydrogenase (zwf)” value in test [2] is reported as “more potent inhibitor of the enzyme than N-acetylglucosamine-6-P”. The Ki in test [3] was determined as 560 µM; in test [4] it was 4000 µM; in [5], 1600 µM; in test [6], 3500 µM; in test [7], 1500 µM; in [8], 1400 µM. Also, the Ki in [9] (read-out: Ki (GlcN-6-P)) came to 1250 µM. In addition, in [3] (read-out: loss of activity at 1 mM glucosamine-6-P), the inhibition at 1000 µM is about 50%. The “effect of glucosamine-6-P on enzyme activity” value in [4] (1 mM glucosamine-6-P, saturating substrates) is recorded as “essentially has no effect on enzyme activity”. Further, in test [4] (read-out: activity remaining at 10 mM glucosamine-6-P), the remaining activity at 10000 µM is about 50%. The “sensitivity to GlcN-6-P inhibition” value in [6] (setting [17]), in test [8] (setting [17]), in test [10], in [11] and in test [12] was “reduced sensitivity to GlcN-6-P inhibition” each time. For the same compound, in test [9] (0, 2 and 4 mM glucosamine-6-P, FIG. 4), the product resistance entry is reported as “product resistance very comparable to the E. coli mutant GlmS enzymes”. Besides, the “inhibition of Pgi (in words)” value in test [14] is “Inhibition is observed”. Moreover, in [15], the “reported inhibitor of phosphoglucoisomerase (Pgi)” value is recorded as “inhibitor”. In addition, the “inhibition of phosphoglucoisomerase (literature)” value in test [16] was “reported as an inhibitor of Pgi; also recorded: reported as an inhibitor of phosphoglucoisomerase”.
